This is an account of results in PMC10824666 (Nature Cancer, 2023).

Where two headings read alike, the source gives them in different places.

For experiment [1], the target named is T1, YSK4 (Homo sapiens, UniProt Q56UN5).
T1 construct: gene MAP3K19
T1 sequence (Q56UN5 1-1328): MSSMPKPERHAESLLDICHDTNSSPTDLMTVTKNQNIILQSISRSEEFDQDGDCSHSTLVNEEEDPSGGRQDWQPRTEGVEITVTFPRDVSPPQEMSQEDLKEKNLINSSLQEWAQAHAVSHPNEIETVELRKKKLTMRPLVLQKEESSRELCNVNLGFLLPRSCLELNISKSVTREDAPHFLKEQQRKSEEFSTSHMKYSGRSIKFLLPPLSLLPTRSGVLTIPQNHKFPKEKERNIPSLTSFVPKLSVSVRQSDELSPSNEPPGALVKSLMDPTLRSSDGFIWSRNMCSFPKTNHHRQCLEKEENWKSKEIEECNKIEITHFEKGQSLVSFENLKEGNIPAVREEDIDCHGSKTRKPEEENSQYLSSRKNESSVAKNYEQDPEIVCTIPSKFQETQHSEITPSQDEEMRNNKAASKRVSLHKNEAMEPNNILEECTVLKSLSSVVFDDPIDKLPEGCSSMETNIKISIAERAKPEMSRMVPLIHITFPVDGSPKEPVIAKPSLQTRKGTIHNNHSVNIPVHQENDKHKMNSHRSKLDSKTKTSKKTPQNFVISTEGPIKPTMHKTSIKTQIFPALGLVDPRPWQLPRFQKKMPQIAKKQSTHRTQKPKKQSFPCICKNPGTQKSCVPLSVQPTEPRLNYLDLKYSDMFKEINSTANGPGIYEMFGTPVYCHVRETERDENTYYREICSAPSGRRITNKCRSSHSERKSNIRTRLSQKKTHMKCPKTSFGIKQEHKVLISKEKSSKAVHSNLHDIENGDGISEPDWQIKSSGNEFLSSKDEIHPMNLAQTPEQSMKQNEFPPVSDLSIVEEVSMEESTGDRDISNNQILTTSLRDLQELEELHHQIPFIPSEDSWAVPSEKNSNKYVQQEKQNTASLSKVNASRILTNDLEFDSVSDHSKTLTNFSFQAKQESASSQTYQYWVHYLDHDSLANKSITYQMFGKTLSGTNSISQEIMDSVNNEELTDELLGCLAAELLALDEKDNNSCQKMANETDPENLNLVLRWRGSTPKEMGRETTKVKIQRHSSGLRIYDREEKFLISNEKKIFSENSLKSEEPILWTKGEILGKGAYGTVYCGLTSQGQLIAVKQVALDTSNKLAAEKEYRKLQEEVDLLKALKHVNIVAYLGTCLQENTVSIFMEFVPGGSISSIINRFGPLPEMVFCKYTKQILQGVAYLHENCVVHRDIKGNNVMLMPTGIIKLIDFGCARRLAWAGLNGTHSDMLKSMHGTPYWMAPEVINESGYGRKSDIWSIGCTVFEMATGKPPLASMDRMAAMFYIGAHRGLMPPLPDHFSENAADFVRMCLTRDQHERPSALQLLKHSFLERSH
Nature of the experiment: biochemical. To be noted: competitive binding, percent of DMSO control. Further details: Eurofins DiscoverX kinase panel, competitive binding assay at 1 uM, percent of DMSO control. The method, then: (§1) Extended Data Fig. 3 In vitro characterization of potent and selective KIF18A inhibitors. a, KIF18A compounds (1 µM) were assessed across a panel of kinases (n = 96) by a competitive binding assay. Graph presented as percentage of control (POC); dashed line indicates POC value of 30 (n = 1 experiment). b, Tubulin polymerization analysis. Profile of KIF18A compounds (10 µM) relative to DMSO, paclitaxel (5 µM, tubulin stabilizer), or nocodazole (5 µM, tubulin destabilizer). Graphs presented as tubulin fluorescence signal at 440 nm expressed as arbitrary units (a.u.) versus time (min) with area-under-the-curve (AUC) values (n = 1 or 3 independent experiments). c, Mitotic spindle image analysis. […] Representative images were captured with x40 objective (scale bar = 10 µm) (n = 1 experiment). d-f, KIF18A compound effects on HeLa cells. d, Cells were treated for 96 h with DMSO or KIF18A compounds at the indicated concentrations. KIF18A compound concentration-response profiles presented as count relative to the percentage of DMSO control (POC) with count EC50 values (n = 2 independent experiments in duplicate). e, KIF18A protein localization in cells after treatment for 6 hours with DMSO or AM-1882 (0.05 µM). Cells stained to detect DNA, KIF18A, and centrin-3. Representative images of mitotic cells (n = 3 per group) were captured with x60 objective (scale bar = 5 µm) and graphs of line scan measurements were obtained for DNA, KIF18A, and centrin-3 channels expressed as fluorescence intensity (a.u.) versus distance (µm) (n = 1 experiment). f, Mitotic cell fate imaging analysis. HeLa Kyoto cells co-expressing α-tubulin-EGFP and H2B-mCherry proteins released from a G1S block in media containing DMSO or AM-1882 (0.2 µM). Analysis was performed on cells entering the first mitosis (n = 40 cells per group). Graph presented as time in mitosis (h) versus mitotic cell fate, either complete cell division (CCD) or death in mitosis (DiM). Classified cells exiting mitosis by the number of daughter cells and cell death in […] We screened a small-molecule library of diverse compounds for selective inhibitors of KIF18A MT-ATPase motor activity. Two compound hits were discovered that phenocopied the effects of KIF18A KD in cells; these hits are structurally distinct from the KIF18A inhibitor BTB-1 (refs. [27],[28]). […] However, the potency of the KIF18A inhibitors was unaffected by varying ATP and MT concentrations (Extended Data Fig. 2d). This supports our proposed model in which KIF18A inhibitors occupy an allosteric pocket formed by motor helices α4 and α6 close to the motor MT-binding surface. To screen for potential off-target interactions with essential mitotic kinases, three of the KIF18A compounds were profiled against a large panel of kinases. […] We next investigated whether our KIF18A inhibitors affected tubulin polymerization in vitro in the absence of the KIF18A motor. All four KIF18A compounds had tubulin-polymerization profiles similar to that of the DMSO control and distinct from those of the paclitaxel (MT stabilizer) and nocodazole (MT destabilizer) co

Experiment [2] addresses T2, Brk (Homo sapiens, UniProt Q13882).
T2 construct: gene PTK6
The experiment can be described thus: biochemical. Details: Eurofins DiscoverX kinase panel, competitive binding assay at 1 uM, percent of DMSO control. To be noted: competitive binding, percent of DMSO control. Here is the method: as §1

The mark [3] stands for this setting: read-out: Kinome Profiling performed by Eurofins DiscoverX / AM-0277, 1.0 µM / POC.
Setting [4] is: read-out: Kinome Profiling performed by Eurofins DiscoverX / AM-1882, 1.0 µM / POC.
Setting [5] is: read-out: Kinome Profiling performed by Eurofins DiscoverX / AM-5308, 1.0 µM / POC.

T2 sequence (Q13882 whole entry): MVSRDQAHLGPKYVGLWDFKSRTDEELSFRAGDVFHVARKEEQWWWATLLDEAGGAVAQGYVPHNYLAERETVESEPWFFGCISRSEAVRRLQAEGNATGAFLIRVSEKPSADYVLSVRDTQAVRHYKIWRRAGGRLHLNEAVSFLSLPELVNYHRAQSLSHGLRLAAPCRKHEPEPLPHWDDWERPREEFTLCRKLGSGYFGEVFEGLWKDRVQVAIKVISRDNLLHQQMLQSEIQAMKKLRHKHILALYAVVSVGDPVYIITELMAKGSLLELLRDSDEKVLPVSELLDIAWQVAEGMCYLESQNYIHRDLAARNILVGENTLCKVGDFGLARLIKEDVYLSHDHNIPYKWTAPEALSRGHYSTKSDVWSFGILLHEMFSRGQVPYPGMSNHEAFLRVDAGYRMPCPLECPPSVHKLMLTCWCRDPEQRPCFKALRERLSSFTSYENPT

Consider `CC(C)(CO)Nc1ccc(C(=O)Nc2cccc(S(=O)(=O)C3CCCC3)c2)c(N2CCC3(CC2)CC3)n1` [AM-0277], for which the remaining activity at 1 µM in experiment [1] (setting [3]) was found to be 100%; in experiment [2] (setting [3]), 95%.

On to `CC(C)(C)NS(=O)(=O)c1cccc(NC(=O)c2ccc(S(=O)(=O)NC(C)(C)C)cc2N2CCC3(CC2)CC3)c1` [AM-1882], for which the remaining activity at 1 µM in experiment [1] (setting [4]) was 87%; in experiment [2] (setting [4]), 94%.

Consider `C[C@@H]1CN(c2cccc(NC(=O)c3ccc(NS(=O)(=O)CCO)cc3N3CCC4(CC3)CC4)n2)CCO1` [AM-5308], for which the remaining activity at 1 µM in experiment [1] (setting [5]) is 75.5%; in experiment [2] (setting [5]) it was 93.5%.
